Reference: patent publication US10787448B2, “Indolizino [3,2-C] quinoline-based fluorescent probe” (SEOUL NATIONAL UNIVERSITY R & DB FOUNDATION, priority 2015, dated 2020)
“Also recorded” adds a separate entry of the source. Read-outs that look alike come from different tables or passages of the source. Each block holds one compound with its values, some of them ahead of it.

Experiments:
PDEδ [1] = target: T1, PDEδ (Homo sapiens, UniProt O43924); assay: Confirmation of target protein using FRET; format: binding; settings: irradiated with 280-nm light
T1 construct: made in house; host or cells: E. coli
T1 sequence (O43924 whole entry): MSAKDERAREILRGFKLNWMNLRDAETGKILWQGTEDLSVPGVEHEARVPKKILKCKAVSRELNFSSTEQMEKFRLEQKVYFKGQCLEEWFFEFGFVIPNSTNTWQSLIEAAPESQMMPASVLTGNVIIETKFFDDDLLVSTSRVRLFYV
Protocol: Therefore, to confirm whether the fluorescent material is able to selectively bind to a specific protein in a cell, fluorescence of the recombinant PDE and/or indolizino[3,2-c]quinoline compound, which is overexpressed in E. coli cells, followed by isolation and purification, was measured by being irradiated with 280-nm light.

[2] = Analysis of optical characteristics (absorption, fluorescence emission, quantum yield) in solvents; format: physicochemical
Procedure, shortened: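 Optical properties of indolizinoquinoline compounds were examined in solvents. A 10 mM DMSO stock was diluted into the solvent, and fluorescence emission spectra were recorded at 20° C. on a JASCO FP-6500 spectrofluorometer. Absorption spectra were taken at room temperature on a Perkin Elmer Lamda 20 UV/VIS spectrometer. Fluorescence quantum yield (Φ) was determined.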

[3] = in water; cited from earlier work
PDEδ [4] = target: T1, PDEδ; assay: Titration using fluorescence polarization; format: binding; settings: 0.5 μM compound, PDEδ protein from 0 to 32 μM
Protocol: To confirm whether the indolizino[3,2-c]quinoline compound can bind to a specific intracellular protein, in the presence of 0.5 μM of the indolizino[3,2-c]quinoline compound, titration was performed by increasing the concentration of the PDEδ protein from 0 to 32 μM to measure a polarization degree.

[5] = system: DNA oligomers (48 bp) tetO sequences; assay: Binding to DNA by fluorescence spectrophotometer; settings: hybridized tetO DNA oligomers added, 1 minute incubation
Protocol: Using a fluorescence spectrophotometer, it was confirmed whether the indolizino[3,2-c]quinoline compound of the present invention binds to DNA. First, DNA oligomers (48 bp) used in the experiment are tetO sequences, and the base sequences thereof are as follows.
The same molarities of oligomers were mixed while being heated at 95° C. for 5 minutes and cooled to room temperature for 2 hours to hybridize, the fluorescence of each of the indolizino[3,2-c]quinoline compounds of the present invention was measured, a corresponding equivalent of DNA oligomer was added to a cuvette, and then incubated while blocking light for 1 minute to measure fluorescence again.

PDEδ [6] = target: T1, PDEδ; assay: Titration using fluorescence polarization; format: binding; settings: Table 9
HeLa cells = assay: Cell permeability: fluorescence imaging and live cell confocal imaging; format: cell-based; settings: HeLa cells
cells [7] = assay: Co-staining / co-localization with DAPI, MitoTracker or LysoTracker; format: cell-based
cells [8] = assay: Comparison of fluorescence stability with conventionally developed dyes; format: cell-based

Structure (SMILES): O=c1cc(C(F)(F)F)c2cc3c4c(c2o1)CCCN4CCC3 [Coumarin 153]
quantum yield of the standard (Φ) [3]: 0.12

Structure (SMILES): c1ccc2cc(-c3nc4ccccc4c4cc5ccccn5c34)ccc2c1 [compound 10]
Kd (PDEδ [4]): 643 nM
change in fluorescence intensity on addition of DNA oligomer [5]: Increase in fluorescence intensity
quantum yield (Φ) ([2]; DW, standard Rhodamine 6G): 0.015
quantum yield (Φ) ([2]; EtOH, standard Coumarin 153): 0.350
Fluorescence Emission Intensity ([2]; H2O at 2 μM): 39.6
Peak emission wavelength λmax em(nm) ([2]; H2O at 2 μM, excited at the longest absorption maxima): 532 nm
Relative fluorescence Emission Intensitynorm ([2]; normalized fluorescence intensity, H2O at 2 μM): 0.17
kmax em(nm) (PDEδ [6]): 530 nm
λabs(nm) (PDEδ [6]): 430 nm

Structure (SMILES): CN(C)c1ccc(-c2nc3ccccc3c3cc4ccccn4c23)cc1 [IQ 36, 4-(indolizino[3,2-c]quinolin-6-yl)-N,N-dimethylaniline]
intracellular molecule recognized (HeLa cells): recognized intracellular RNA
intracellular organelles in which fluorescence is detected (HeLa cells): intensively distributed in cytoplasmic and nucleolus areas
staining pattern compared with conventional dyes (cells [7]): an aspect similar to RNA select for staining RNA; also recorded: stains RNA in a pattern similar to the now currently available Sytoselect
staining pattern compared with conventional dyes (cells [7]; listed as Formula 12): works as a complementary stain with respect to DAPI
fluorescence stability compared with commercially available dyes (cells [8]): superior stability, compared to Sytoselect

Other lines, results leading:

fluorescence change / binding to PDEδ by FRET (PDEδ [1]): low fluorescence intensity
fluorescence (intensity, in words) [2]: did not induce fluorescence
Structure (SMILES): O=[N+]([O-])c1ccc(-c2nc3ccccc3c3cc4ccccn4c23)cc1 [IQ 2, 6-(4-nitrophenyl)indolizino[3,2-c]quinoline]

fluorescence change / binding to PDEδ by FRET (PDEδ [1]): no change in fluorescence
fluorescence (intensity, in words) [2]: did not induce fluorescence
Structure (SMILES): Cc1cccn2c1cc1c3ccccc3nc(-c3ccc([N+](=O)[O-])cc3)c12 [IQ 13, 11-methyl-6-(4-nitrophenyl)indolizino[3,2-c]quinoline]
